Experimental data reported in the NIST ThermoML archive (doi:10.1021/je060271a).
Where “and” joins values, the source holds several entries; their conditions need not be identical. Equal entries are not always repeated.

Conditions: 323.15 K, Liquid, Vibrating tube method

CCCCCCCC(=O)OCC(COC(=O)CCCCCCC)(COC(=O)CCCCCCC)COC(=O)CCCCCCC [pentaerythritol tetraoctanoate]
Conditions	mass density
3786.1 kPa	943.3 kg/m3
3800.8 kPa	943.3 kg/m3
3818.1 kPa	943.3 kg/m3
3832.3 kPa	943.3 kg/m3
3846.9 kPa	943.3 kg/m3
3894.9 kPa	943.3 kg/m3
4078 kPa	943.4 kg/m3
4095.3 kPa	943.5 kg/m3
4116.3 kPa	943.5 kg/m3
4133.4 kPa	943.5 kg/m3
4151.5 kPa	943.4 kg/m3
4169.5 kPa	943.5 kg/m3
4190.6 kPa	943.5 kg/m3
4208.3 kPa	943.5 kg/m3
4239.4 kPa	943.7 kg/m3
4240.5 kPa	943.6 kg/m3
4244.3 kPa	943.6 kg/m3
4247.1 kPa	943.6 kg/m3
4247.4 kPa	943.5 kg/m3
4247.6 kPa	943.5 kg/m3
4248.6 kPa	943.5 kg/m3
4249.3 kPa	943.5 kg/m3 and 943.6 kg/m3
4250.7 kPa	943.7 kg/m3
4258.1 kPa	943.6 kg/m3
4267.5 kPa	943.7 kg/m3
4277.9 kPa	943.5 kg/m3
4287.4 kPa	943.5 kg/m3
4298 kPa	943.6 kg/m3
4315.8 kPa	943.6 kg/m3
4334.7 kPa	943.5 kg/m3
4353.7 kPa	943.6 kg/m3
4376.6 kPa	943.5 kg/m3
4396.7 kPa	943.6 kg/m3
4416.4 kPa	943.8 kg/m3
4436.5 kPa	943.7 kg/m3
4522.7 kPa	943.7 kg/m3
4548.7 kPa	943.7 kg/m3
4571 kPa	943.8 kg/m3
4604.4 kPa	943.8 kg/m3
4618.8 kPa	943.7 kg/m3
4647.7 kPa	943.8 kg/m3
4665.2 kPa	943.8 kg/m3
4679.7 kPa	943.8 kg/m3
4709.7 kPa	943.8 kg/m3
4727.3 kPa	943.9 kg/m3
4891.1 kPa	943.9 kg/m3
4907.3 kPa	944 kg/m3
4923.3 kPa	944 kg/m3
4942.8 kPa	944.1 kg/m3
4959.8 kPa	943.9 kg/m3
4976.6 kPa	944 kg/m3
4996.1 kPa	944 kg/m3
5013.6 kPa	944 kg/m3
5030.7 kPa	944 kg/m3
5047.7 kPa	944.1 kg/m3
5068.6 kPa	944.1 kg/m3
5086.9 kPa	944.1 kg/m3
5104.6 kPa	944.2 kg/m3
5218.8 kPa	944.1 kg/m3
5237.3 kPa	944.2 kg/m3
5255.9 kPa	944.1 kg/m3
5277.4 kPa	944 kg/m3
5296.3 kPa	944.3 kg/m3
5316.3 kPa	944.2 kg/m3
5355 kPa	944.3 kg/m3
5378.7 kPa	944.3 kg/m3
5681.4 kPa	944.5 kg/m3
5729.8 kPa	944.6 kg/m3
5752.1 kPa	944.5 kg/m3
5847.4 kPa	944.5 kg/m3
5898.9 kPa	944.7 kg/m3
5922.8 kPa	944.6 kg/m3
5946.5 kPa	944.7 kg/m3
5970.5 kPa	944.6 kg/m3
5999.4 kPa	944.7 kg/m3
6024.1 kPa	944.7 kg/m3
6049 kPa	944.6 kg/m3
6104.5 kPa	944.9 kg/m3
6129.2 kPa	944.8 kg/m3
6154.4 kPa	944.8 kg/m3
6185.7 kPa	944.9 kg/m3
6211.6 kPa	944.7 kg/m3
6413.9 kPa	945 kg/m3
6442.7 kPa	945.1 kg/m3
6473 kPa	945 kg/m3
6509.3 kPa	944.9 kg/m3
6534.3 kPa	945 kg/m3
6561.1 kPa	945 kg/m3
6584.4 kPa	945 kg/m3
6606.7 kPa	945 kg/m3
6623 kPa	945.2 kg/m3
6640.9 kPa	945.1 kg/m3
6655.8 kPa	945.2 kg/m3
6670.8 kPa	945.1 kg/m3
6686 kPa	945.1 kg/m3
6704.2 kPa	945 kg/m3
6719.4 kPa	945.2 kg/m3
6735.1 kPa	945.2 kg/m3
6749.8 kPa	945.1 kg/m3
6768.8 kPa	945.2 kg/m3
6784.3 kPa	945.2 kg/m3
6800.4 kPa	945.2 kg/m3
6817 kPa	945.2 kg/m3
6835.8 kPa	945.3 kg/m3
6851.9 kPa	945.3 kg/m3
6867.4 kPa	945.1 kg/m3
6883.1 kPa	945.3 kg/m3
6902.5 kPa	945.3 kg/m3
6918.5 kPa	945.3 kg/m3
6935.1 kPa	945.2 kg/m3
6954.5 kPa	945.3 kg/m3
6971.2 kPa	945.4 kg/m3
6987.8 kPa	945.3 kg/m3
7004.7 kPa	945.4 kg/m3
7025.5 kPa	945.3 kg/m3
7043.2 kPa	945.5 kg/m3
7059.8 kPa	945.4 kg/m3
7076.5 kPa	945.4 kg/m3
7096.9 kPa	945.4 kg/m3
7113.8 kPa	945.4 kg/m3
7131.3 kPa	945.5 kg/m3
7148.4 kPa	945.5 kg/m3
7169.6 kPa	945.5 kg/m3
7187.1 kPa	945.5 kg/m3
7204 kPa	945.6 kg/m3
7225.1 kPa	945.5 kg/m3
7243.2 kPa	945.4 kg/m3
7262.9 kPa	945.5 kg/m3
7281.3 kPa	945.5 kg/m3
7299.6 kPa	945.5 kg/m3
7320.9 kPa	945.6 kg/m3
7338.5 kPa	945.7 kg/m3
7357.3 kPa	945.6 kg/m3
7379.6 kPa	945.5 kg/m3
7397.7 kPa	945.7 kg/m3
7416.4 kPa	945.6 kg/m3
7435.3 kPa	945.6 kg/m3
7457.8 kPa	945.7 kg/m3
7476.9 kPa	945.7 kg/m3
7496.1 kPa	945.6 kg/m3
7515.6 kPa	945.7 kg/m3
7538.6 kPa	945.7 kg/m3
7558.1 kPa	945.7 kg/m3
7577.6 kPa	945.6 kg/m3
7601.3 kPa	945.7 kg/m3
7621.1 kPa	945.8 kg/m3
7640.6 kPa	945.7 kg/m3
7660.5 kPa	945.8 kg/m3
